According to ChEMBL document CHEMBL3853284, “Bioactive Dihydro-β-agarofuran Sesquiterpenoids from the Australian Rainforest Plant Maytenus bilocularis” (J Nat Prod, 2016):

Assays:
[1] = Cytotoxicity against human LNCAP cells assessed as cell viability inhibition at 10 uM after 72 hrs by Alamar blue assay; type: functional
[2] = Potentiation of vinblastin-induced cytotoxicity against human CEM cells at 5 uM after 72 hrs by Alamar blue assay relative to control; type: functional, CCRF-CEM
[3] = molecular target: T1, Large neutral amino acids transporter small subunit 3 (Homo sapiens, UniProt O75387); assay: Inhibition of LAT3 in human LNCAP cells assessed as inhibition of [3H]L-leucine uptake after 15 mins by liquid scintillation counting method; type: cell-based
T1 sequence (O75387 whole entry): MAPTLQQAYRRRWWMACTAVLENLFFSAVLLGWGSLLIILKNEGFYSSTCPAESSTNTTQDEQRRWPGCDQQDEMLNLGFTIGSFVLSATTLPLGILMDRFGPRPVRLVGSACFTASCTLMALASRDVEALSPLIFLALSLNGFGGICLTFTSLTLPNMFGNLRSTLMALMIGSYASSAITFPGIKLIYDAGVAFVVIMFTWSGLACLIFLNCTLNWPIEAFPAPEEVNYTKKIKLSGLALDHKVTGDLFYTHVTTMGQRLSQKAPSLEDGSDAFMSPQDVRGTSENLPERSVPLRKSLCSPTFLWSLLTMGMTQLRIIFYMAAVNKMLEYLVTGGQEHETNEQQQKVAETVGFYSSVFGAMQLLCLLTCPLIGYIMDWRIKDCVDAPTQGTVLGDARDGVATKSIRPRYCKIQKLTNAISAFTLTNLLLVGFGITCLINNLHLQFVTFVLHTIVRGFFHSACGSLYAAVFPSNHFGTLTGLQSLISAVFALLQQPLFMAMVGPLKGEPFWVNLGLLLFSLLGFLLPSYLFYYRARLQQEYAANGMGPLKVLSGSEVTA

[4] = test system: CCRF-CEM VCR/R; assay: Inhibition of P-gp in human CCRF-CEM VCR/R cells assessed as potentiation of vinblastin-induced cytotoxicity at 5 uM after 72 hrs by Alamar blue assay relative to control; type: cell-based
[5] = molecular target: T2, Large neutral amino acids transporter small subunit 3 (Homo sapiens) (UniProt O75387); assay: Inhibition of LAT3 in human LNCAP cells assessed as inhibition of [3H]L-leucine uptake at 10 uM after 15 mins by liquid scintillation counting method relative to control; type: cell-based
T2 sequence (whole entry): T1 sequence (O75387 whole entry)

[6] = molecular target: T2, Large neutral amino acids transporter small subunit 3 (Homo sapiens); assay: Inhibition of LAT3 in human LNCAP cells assessed as inhibition of [3H]L-leucine uptake at 10 mM after 15 mins by liquid scintillation counting method relative to control; type: cell-based

| SMILES | inhibition at 10 µM [1] [%] | fold change (FC) [2] | fold change (FC) [4] | other results |
| --- | --- | --- | --- | --- |
| CC(=O)O[C@H]1CC[C@@H](C)[C@]23OC(C)(C)[C@H]([C@@H](O)[C@@H](OC(=O)c4ccccc4)[C@]12C)[C@H]3OC(C)=O | > 30 |  |  |  |
| CC(=O)OC[C@@]12[C@@H](OC(C)=O)CC[C@@H](C)[C@]13OC(C)(C)[C@H]([C@@H](OC(=O)c1ccc(Br)cc1)[C@H]2OC(=O)c1ccccc1)[C@H]3OC(C)=O | > 30 |  |  |  |
| CC(=O)O[C@@H]1[C@@H]2[C@@H](OC(C)=O)[C@]3(OC2(C)C)[C@H](C)CC[C@H](OC(C)=O)[C@@]3(C)[C@@H]1OC(=O)c1ccccc1 | 14.6 | 2 | 61 | IC50 [3]: 15.5 µM |
| COc1ccc(CCN(C)CCCC(C#N)(c2ccc(OC)c(OC)c2)C(C)C)cc1OC (stereo not given) [VERAPAMIL] |  | 2.8 | 64.5 | inhibition [5]: 82.7% |
| CC(=O)OC[C@@]12[C@@H](OC(C)=O)CC[C@@H](C)[C@]13OC(C)(C)[C@H]([C@@H](O)[C@@H]2OC(=O)c1ccccc1)[C@H]3OC(C)=O | > 30 |  |  |  |
| CC(=O)OC[C@@]12[C@@H](OC(C)=O)CC[C@@H](C)[C@]13OC(C)(C)[C@H]([C@@H](OC(C)=O)[C@H]2OC(=O)c1ccccc1)[C@H]3OC(C)=O | > 30 |  |  |  |
| CC(=O)OC[C@@]12[C@@H](OC(C)=O)CC[C@@H](C)[C@]13OC(C)(C)[C@H](C(=O)[C@H]2OC(=O)c1ccccc1)[C@H]3OC(C)=O | > 30 | 1.9 | 50.6 | IC50 [3]: 151 µM |
| NC1(C(=O)O)CC2CCC1C2 (stereo not given) |  |  |  | inhibition [6]: 40.2% |
| CC(=O)OC[C@@]12[C@@H](OC(C)=O)CC[C@@H](C)[C@]13OC(C)(C)[C@H]([C@@H](OC(=O)c1ccccc1)[C@H]2OC(=O)c1ccccc1)[C@H]3OC(C)=O | 21.2 | 2.1 | 131 |  |
| CC(=O)O[C@H]1CC[C@@H](C)[C@]23OC(C)(C)[C@H](C[C@H](OC(=O)c4ccccc4)[C@]12C)[C@H]3OC(C)=O | > 30 |  |  |  |
| CC(=O)OC[C@@]12[C@@H](OC(C)=O)CC[C@@H](C)[C@]13OC(C)(C)[C@H]([C@@H](OC(=O)C(C)(C)C)[C@H]2OC(=O)c1ccccc1)[C@H]3OC(C)=O | 25.6 | 1.5 | 124 |  |
| CC(=O)OC[C@@]12[C@@H](OC(C)=O)CC[C@@H](C)[C@]13OC(C)(C)[C@H](C[C@@H]2OC(=O)c1ccccc1)[C@H]3OC(C)=O | > 30 |  |  |  |
| COCC(=O)O[C@@H]1[C@@H]2[C@@H](OC(C)=O)[C@]3(OC2(C)C)[C@H](C)CC[C@H](OC(C)=O)[C@@]3(COC(C)=O)[C@@H]1OC(=O)c1ccccc1 | > 30 |  |  |  |
| CC(=O)OC[C@@]12[C@@H](OC(C)=O)CC[C@@H](C)[C@]13OC(C)(C)[C@H]([C@@H](O)[C@H]2OC(=O)c1ccccc1)[C@H]3OC(C)=O | > 30 | 1.7 | 36.3 | IC50 [3]: 124 µM |
| CC(=O)OC[C@@]12[C@@H](OC(C)=O)CC[C@@H](C)[C@]13OC(C)(C)[C@H]([C@@H](OC(C)=O)[C@H]2OC(=O)c1ccccc1)[C@H]3O | > 30 |  |  |  |
